The text below walks through data of patent publication US20240252506A1 (Hoffmann-La Roche Inc., priority 2021, published 2024).

Each structure is given as a SMILES string. In brackets after ≈: the same amount, converted by molar mass.

The first experiment concerns Escherichia coli ATCC 25922. In words: Minimal Inhibitory Concentration (MIC) determination, broth microdilution (CLSI M07-A10). Format: cell-based. The note with it: Escherichia coli, ATCC25922, read-out: Escherichia coli growth inhibition MIC, strain Escherichia coli ATCC 25922, 18-24 hours at 35±2° C., lowest concentration for complete growth inhibition (no visible growth). The essentials: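 MIC read visually as the lowest concentration with complete growth inhibition after 18-24 h at 35±2° C, ambient air. Method follows CLSI M07-A10 broth microdilution, two-fold compound series, inoculum standardized to 0.5 McFarland then diluted 1:200.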
A general note: Dilution methods test growth across graded concentrations, often in twofold steps.
`C[C@H](N)Cn1nc2c(F)c3c(c(F)c2n1)CC(CN1CCC2(CC1)CN(c1cnc4c(n1)NC(=O)CO4)C(=O)O2)C3` [Example 123, 6-[8-[[2-[(2S)-2-aminopropyl]-4,8-difluoro-6,7-dihydro-5H-cyclopenta[f]benzotriazol-6-yl]methyl]-2-oxo-1-oxa-3,8-diazaspiro[4.5]decan-3-yl]-4H-pyrazino[2,3-b][1,4]oxazin-3-one; formic acid]: the MIC was 0.125 µg/mL (≈ 0.219 µM).

The same experiment, now with this note: Escherichia coli, ATCC25922, strain Escherichia coli ATCC 25922, 18-24 hours at 35±2° C., lowest concentration for complete growth inhibition (no visible growth), read-out: Escherichia coli growth inhibition MIC.
With `NCCn1nc2cc(F)c3c(c2n1)CC(CN1CCC2(CC1)CN(c1cnc4c(n1)NC(=O)CO4)C(=O)O2)C3.O=C(O)C(F)(F)F` (stereo not shown) [Example 83, 6-[8-[[2-(2-aminoethyl)-5-fluoro-7,8-dihydro-6H-cyclopenta[e]benzotriazol-7-yl]methyl]-2-oxo-1-oxa-3,8-diazaspiro[4.5]decan-3-yl]-4H-pyrazino[2,3-b][1,4]oxazin-3-one; 2,2,2-trifluoroacetic acid], the MIC was at most 0.06 µg/mL.
For `NCCn1nnc2cc(F)c3c(c21)CC(CN1CCC2(CC1)CN(c1cnc4c(n1)NC(=O)CO4)C(=O)O2)C3` (stereo not shown) [Example 84, 6-[8-[[1-(2-aminoethyl)-5-fluoro-7,8-dihydro-6H-cyclopenta[e]benzotriazol-7-yl]methyl]-2-keto-1-oxa-3,8-diazaspiro[4.5]decan-3-yl]-4H-pyrazino[2,3-b][1,4]oxazin-3-one], the MIC was 0.25 µg/mL (≈ 0.465 µM).
Same read-out and setting: to `NCCn1nnc2c3c(c(F)cc21)CC(CN1CCC2(CC1)CN(c1cnc4c(n1)NC(=O)CO4)C(=O)O2)C3` (stereo not shown) [Example 85, 6-[8-[[3-(2-aminoethyl)-5-fluoro-7,8-dihydro-6H-cyclopenta[e]benzotriazol-7-yl]methyl]-2-keto-1-oxa-3,8-diazaspiro[4.5]decan-3-yl]-4H-pyrazino[2,3-b][1,4]oxazin-3-one] belongs 0.25 µg/mL (≈ 0.465 µM); to `C[C@@H](N)c1nc2cc3c(c(F)c2o1)CC(CN1CCC2(CC1)CN(c1cnc4c(n1)NC(=O)CO4)C(=O)O2)C3` (stereo partly drawn) [Example 90, 6-[8-[[2-[(1R)-1-aminoethyl]-8-fluoro-6,7-dihydro-5H-cyclopenta[f][1,3]benzoxazol-6-yl]methyl]-2-oxo-1-oxa-,38-diazaspiro[4.5]decan-3-yl]-4H-pyrazino[2,3-b][1,4]oxazin-3-one], 0.125 µg/mL (≈ 0.233 µM); to `CNCc1nc2cc(F)c3c(c2[nH]1)CC(CN1CCC2(CC1)CN(c1cnc4c(n1)NC(=O)CO4)C(=O)O2)C3` (stereo not shown) [Example 92, 6-[8-[[5-fluoro-2-(methylaminomethyl)-1,6,7,8-tetrahydrocyclopenta[e]benzimidazol-7-yl]methyl]-2-oxo-1-oxa-3,8-diazaspiro[4.5]decan-3-yl]-4H-pyrazino[2,3-b][1,4]oxazin-3-one], 0.125 µg/mL (≈ 0.233 µM).
Same read-out and setting: the same measure for `CNCc1nc2c(F)c3c(cc2o1)CC(CN1CCC2(CC1)CN(c1cnc4c(n1)NC(=O)CO4)C(=O)O2)C3` (stereo not shown) [Example 93, 6-[8-[[4-fluoro-2-(methylaminomethyl)-6,7-dihydro-5H-cyclopenta[f][1,3]benzoxazol-6-yl]methyl]-2-oxo-1-oxa-3,8-diazaspiro[4.5]decan-3-yl]-4H-pyrazino[2,3-b][1,4]oxazin-3-one]: 0.125 µg/mL (≈ 0.233 µM).
Same read-out and setting: to `CNCc1nc2c3c(c(F)cc2o1)CC(CN1CCC2(CC1)CN(c1cnc4c(n1)NC(=O)CO4)C(=O)O2)C3` (stereo not shown) [Example 96, 6-[8-[[5-fluoro-2-(methylaminomethyl)-7,8-dihydro-6H-cyclopenta[e][1,3]benzoxazol-7-yl]methyl]-2-oxo-1-oxa-3,8-diazaspiro[4.5]decan-3-yl]-4H-pyrazino[2,3-b][1,4]oxazin-3-one] belongs 0.125 µg/mL (≈ 0.233 µM); to `C[C@H](N)c1nc2cc3c(c(F)c2o1)CC(CN1CCC2(CC1)CN(c1cnc4c(n1)NC(=O)CO4)C(=O)O2)C3` (stereo partly drawn) [Example 97, 6-[8-[[2-[(1S)-1-aminoethyl]-8-fluoro-6,7-dihydro-5H-cyclopenta[f][1,3]benzoxazol-6-yl]methyl]-2-oxo-1-oxa-3,8-diazaspiro[4.5]decan-3-yl]-4H-pyrazino[2,3-b][1,4]oxazin-3-one], 0.125 µg/mL (≈ 0.233 µM).
With `CNCCn1nc2c(F)c3c(c(F)c2n1)CC(CN1CCC2(CC1)CN(c1cnc4c(n1)NC(=O)CO4)C(=O)O2)C3.O=CO` [Example 117, 6-[8-[[4,8-difluoro-2-[2-(methylamino)ethyl]-6,7-dihydro-5H-cyclopenta[f]benzotriazol-6-yl]methyl]-2-oxo-1-oxa-3,8-diazaspiro[4.5]decan-3-yl]-4H-pyrazino[2,3-b][1,4]oxazin-3-one; formic acid], the MIC amounted to 0.25 µg/mL.
As for `O=C1COc2ncc(N3CC4(CCN(CC5Cc6c(c(F)c7nn(CCNC8CC8)nc7c6F)C5)CC4)OC3=O)nc2N1` [Example 122], the MIC amounted to 0.5 µg/mL (≈ 0.839 µM).
For the compound `C[C@H](N)Cn1cnc2c(F)c3c(c(F)c21)CC(CN1CCC2(CC1)CN(c1cnc4c(n1)NC(=O)CO4)C(=O)O2)C3` (stereo partly drawn) [Example 128, 6-[8-[[1-[(2S)-2-aminopropyl]-4,8-difluoro-6,7-dihydro-5H-cyclopenta[f]benzimidazol-6-yl]methyl]-2-oxo-1-oxa-3,8-diazaspiro[4.5]decan-3-yl]-4H-pyrazino[2,3-b][1,4]oxazin-3-one], the MIC turned out to be 0.25 µg/mL (≈ 0.44 µM).
Still for that read-out and setting: to `N[C@H]1COC[C@@H]1c1nc2cc3c(c(F)c2o1)CC(CN1CCC2(CC1)CN(c1cnc4c(n1)NC(=O)CO4)C(=O)O2)C3` (stereo partly drawn) [Example 138, 6-[8-[[2-[(3R,4R)-4-Aminotetrahydrofuran-3-yl]-8-fluoro-6,7-dihydro-5H-cyclopenta[f][1,3]benzoxazol-6-yl]methyl]-2-oxo-1-oxa-3,8-diazaspiro[4.5]decan-3-yl]-4H-pyrazino[2,3-b][1,4]oxazin-3-one] belongs 1 µg/mL (≈ 1.73 µM); to `N[C@@H](CO)c1nc2cc3c(c(F)c2o1)CC(CN1CCC2(CC1)CN(c1cnc4c(n1)NC(=O)CO4)C(=O)O2)C3` (stereo partly drawn) [Example 143, 6-[8-[[2-[(1S)-1-Amino-2-hydroxy-ethyl]-8-fluoro-6,7-dihydro-5H-cyclopenta[f][1,3]benzoxazol-6-yl]methyl]-2-oxo-1-oxa-3,8-diazaspiro[4.5]decan-3-yl]-4H-pyrazino[2,3-b][1,4]oxazin-3-one], 0.25 µg/mL (≈ 0.452 µM).
Same read-out and setting: to `O=C1COc2ccc(N3CC4(CCN(CC5Cc6cc7nc([C@@H]8C[C@@H](O)CN8)oc7c(F)c6C5)CC4)OC3=O)nc2N1` (stereo partly drawn) [Example 147, 6-[8-[[8-Fluoro-2-[(2S,4R)-4-hydroxypyrrolidin-2-yl]-6,7-dihydro-5H-cyclopenta[f][1,3]benzoxazol-6-yl]methyl]-2-oxo-1-oxa-3,8-diazaspiro[4.5]decan-3-yl]-4H-pyrido[3,2-b][1,4]oxazin-3-one] belongs 0.5 µg/mL (≈ 0.864 µM).

Staying with this experiment, now noted: strain Escherichia coli ATCC 25922, 18-24 hours at 35±2° C., lowest concentration for complete growth inhibition (no visible growth).
As to `O=C1COc2ncc(N3CC4(CCN(CC5Cc6cc7nc([C@@H]8CCN8)oc7c(F)c6C5)CC4)OC3=O)nc2N1` (stereo partly drawn) [Example 107, 6-[8-[[2-[(2S)-azetidin-2-yl]-8-fluoro-6,7-dihydro-5H-cyclopenta[f][1,3]benzoxazol-6-yl]methyl]-2-oxo-1-oxa-3,8-diazaspiro[4.5]decan-3-yl]-4H-pyrazino[2,3-b][1,4]oxazin-3-one], the “Escherichia coli growth inhibition MIC” value turned out to be 0.125 µg/mL.
Still for that read-out and setting: the same measure for `C[C@H](N)Cn1cnc2c(F)c3c(c(F)c21)CC(CN1CCC2(CC1)CN(c1cnc4c(n1)NC(=O)CO4)C(=O)O2)C3` (stereo partly drawn) [Example 129, 6-[8-[[1-[(2S)-2-aminopropyl]-4,8-difluoro-6,7-dihydro-5H-cyclopenta[f]benzimidazol-6-yl]methyl]-2-oxo-1-oxa-3,8-diazaspiro[4.5]decan-3-yl]-4H-pyrazino[2,3-b][1,4]oxazin-3-one; formic acid]: 0.25 µg/mL; for `N[C@H]1COC[C@@H]1c1nc2cc3c(c(F)c2o1)CC(CN1CCC2(CC1)CN(c1cnc4c(n1)NC(=O)CO4)C(=O)O2)C3` (stereo partly drawn) [Example 139, 6-[8-[[2-[(3R,4R)-4-Aminotetrahydrofuran-3-yl]-8-fluoro-6,7-dihydro-5H-cyclopenta[f][1,3]benzoxazol-6-yl]methyl]-2-oxo-1-oxa-3,8-diazaspiro[4.5]decan-3-yl]-4H-pyrazino[2,3-b][1,4]oxazin-3-one]: 1 µg/mL; for `O=C1COc2ncc(N3CC4(CCN(CC5Cc6cc7nc([C@H]8CCN8)oc7c(F)c6C5)CC4)OC3=O)nc2N1` (stereo partly drawn) [Example 140, 6-[8-[[2-[(2R)-azetidin-2-yl]-8-fluoro-6,7-dihydro-5H-cyclopenta[f][1,3]benzoxazol-6-yl]methyl]-2-oxo-1-oxa-3,8-diazaspiro[4.5]decan-3-yl]-4H-pyrazino[2,3-b][1,4]oxazin-3-one]: 0.25 µg/mL.
The same measure, in the same setting: to `O=C1COc2ncc(N3CC4(CCN(CC5Cc6cc7nc([C@@H]8C[C@@H](O)CN8)oc7c(F)c6C5)CC4)OC3=O)nc2N1` (stereo partly drawn) [Example 142, 6-[8-[[8-Fluoro-2-[(2S,4R)-4-hydroxypyrrolidin-2-yl]-6,7-dihydro-5H-cyclopenta[f][1,3]benzoxazol-6-yl]methyl]-2-oxo-1-oxa-3,8-diazaspiro[4.5]decan-3-yl]-4H-pyrazino[2,3-b][1,4]oxazin-3-one] belongs 0.5 µg/mL; to `N[C@@H](CO)c1nc2cc3c(c(F)c2o1)CC(CN1CCC2(CC1)CN(c1cnc4c(n1)NC(=O)CO4)C(=O)O2)C3` (stereo partly drawn) [Example 144, 6-[8-[[2-[(1S)-1-Amino-2-hydroxy-ethyl]-8-fluoro-6,7-dihydro-5H-cyclopenta[f][1,3]benzoxazol-6-yl]methyl]-2-oxo-1-oxa-3,8-diazaspiro[4.5]decan-3-yl]-4H-pyrazino[2,3-b][1,4]oxazin-3-one], 0.25 µg/mL; to `CN[C@@H](CO)c1nc2cc3c(c(F)c2o1)CC(CN1CCC2(CC1)CN(c1cnc4c(n1)NC(=O)CO4)C(=O)O2)C3` (stereo partly drawn) [Example 146, 6-[8-[[8-Fluoro-2-[(1S)-2-hydroxy-1-(methylamino)ethyl]-6,7-dihydro-5H-cyclopenta[f][1,3]benzoxazol-6-yl]methyl]-2-oxo-1-oxa-3,8-diazaspiro[4.5]decan-3-yl]-4H-pyrazino[2,3-b][1,4]oxazin-3-one], 0.5 µg/mL.
